Experimental data from patent publication US20120197004A1, “NOVEL ANTI-MICROBIAL PEPTIDOMIMETIC COMPOUNDS AND METHODS TO CALCULATE ANTI-MICROBIAL ACTIVITY” (priority 2006, published 2012).
Where a SMILES comes first, the peptide text is derived from it. [ ]: non-standard residue; d: D form. Oic = O=C(O)[C@@H]1C[C@@H]2CCCC[C@@H]2N1; Tic = O=C(O)[C@@H]1Cc2ccccc2CN1; GABA = NCCCC(=O)O

System: Mycobacterium ranae (ATCC 110)
Settings: in vitro

CC(=O)NCCCC(=O)N[C@@H](Cc1ccccc1)C(=O)N1Cc2ccccc2C[C@H]1C(=O)N1[C@H](C(=O)NCCCC(=O)N[C@@H](CCCCN)C(=O)N2Cc3ccccc3C[C@H]2C(=O)N2[C@H](C(=O)NCCCC(=O)N[C@@H](Cc3ccccc3)C(=O)N3Cc4ccccc4C[C@H]3C(=O)N3[C@H](C(=O)NCCCC(=O)N[C@@H](CCCCN)C(=O)N4Cc5ccccc5C[C@H]4C(=O)N[C@@H](CCCCN)C(=O)N[C@@H](CCCCN)C(=O)N[C@@H](CCCCN)C(=O)N[C@@H](CCCCN)C(=O)N[C@@H](CCCCN)C(N)=O)C[C@@H]4CCCC[C@@H]43)C[C@@H]3CCCC[C@@H]32)C[C@@H]2CCCC[C@@H]21 [FKAB-1Gd3, Ac-Gaba-F-Tic-Oic-Gaba-K-Tic-Oic-Gaba-F-Tic-Oic-Gaba-K-Tic-KKKKK-CONH2] (Ac-[GABA]F[Tic][Oic][GABA]K[Tic][Oic][GABA]F[Tic][Oic][GABA]K[Tic]KKKKK-NH2)
selectivity for Mycobacterium ranae over Staphylococcus aureus ME/GM/TC resistant: 10 fold
